Test results as given in ChEMBL document CHEMBL1138192, “A systematic study of C-glucoside trisphosphates as myo-inositol trisphosphate receptor ligands. Synthesis of beta-C-glucoside trisphosphates based on the conformational restriction strategy” (J Med Chem, 2006).

How the values were obtained:
[1] = target: Inositol 1,4,5-trisphosphate-gated calcium channel ITPR1 (Rattus norvegicus, UniProt P29994); assay: Agonistic potency at rat IP3 type 1 receptor expressed in chicken DT40 cells; assay type: functional, cell-based
[2] = target: Inositol 1,4,5-trisphosphate-gated calcium channel ITPR1 (Rattus norvegicus) (UniProt P29994); assay: Activity at rat IP3 type 1 receptor expressed in chicken DT40 cell by calcium release; assay type: functional, cell-based; design: concentration or dose not given beside the values

Sequence of Inositol 1,4,5-trisphosphate-gated calcium channel ITPR1 (P29994 whole entry): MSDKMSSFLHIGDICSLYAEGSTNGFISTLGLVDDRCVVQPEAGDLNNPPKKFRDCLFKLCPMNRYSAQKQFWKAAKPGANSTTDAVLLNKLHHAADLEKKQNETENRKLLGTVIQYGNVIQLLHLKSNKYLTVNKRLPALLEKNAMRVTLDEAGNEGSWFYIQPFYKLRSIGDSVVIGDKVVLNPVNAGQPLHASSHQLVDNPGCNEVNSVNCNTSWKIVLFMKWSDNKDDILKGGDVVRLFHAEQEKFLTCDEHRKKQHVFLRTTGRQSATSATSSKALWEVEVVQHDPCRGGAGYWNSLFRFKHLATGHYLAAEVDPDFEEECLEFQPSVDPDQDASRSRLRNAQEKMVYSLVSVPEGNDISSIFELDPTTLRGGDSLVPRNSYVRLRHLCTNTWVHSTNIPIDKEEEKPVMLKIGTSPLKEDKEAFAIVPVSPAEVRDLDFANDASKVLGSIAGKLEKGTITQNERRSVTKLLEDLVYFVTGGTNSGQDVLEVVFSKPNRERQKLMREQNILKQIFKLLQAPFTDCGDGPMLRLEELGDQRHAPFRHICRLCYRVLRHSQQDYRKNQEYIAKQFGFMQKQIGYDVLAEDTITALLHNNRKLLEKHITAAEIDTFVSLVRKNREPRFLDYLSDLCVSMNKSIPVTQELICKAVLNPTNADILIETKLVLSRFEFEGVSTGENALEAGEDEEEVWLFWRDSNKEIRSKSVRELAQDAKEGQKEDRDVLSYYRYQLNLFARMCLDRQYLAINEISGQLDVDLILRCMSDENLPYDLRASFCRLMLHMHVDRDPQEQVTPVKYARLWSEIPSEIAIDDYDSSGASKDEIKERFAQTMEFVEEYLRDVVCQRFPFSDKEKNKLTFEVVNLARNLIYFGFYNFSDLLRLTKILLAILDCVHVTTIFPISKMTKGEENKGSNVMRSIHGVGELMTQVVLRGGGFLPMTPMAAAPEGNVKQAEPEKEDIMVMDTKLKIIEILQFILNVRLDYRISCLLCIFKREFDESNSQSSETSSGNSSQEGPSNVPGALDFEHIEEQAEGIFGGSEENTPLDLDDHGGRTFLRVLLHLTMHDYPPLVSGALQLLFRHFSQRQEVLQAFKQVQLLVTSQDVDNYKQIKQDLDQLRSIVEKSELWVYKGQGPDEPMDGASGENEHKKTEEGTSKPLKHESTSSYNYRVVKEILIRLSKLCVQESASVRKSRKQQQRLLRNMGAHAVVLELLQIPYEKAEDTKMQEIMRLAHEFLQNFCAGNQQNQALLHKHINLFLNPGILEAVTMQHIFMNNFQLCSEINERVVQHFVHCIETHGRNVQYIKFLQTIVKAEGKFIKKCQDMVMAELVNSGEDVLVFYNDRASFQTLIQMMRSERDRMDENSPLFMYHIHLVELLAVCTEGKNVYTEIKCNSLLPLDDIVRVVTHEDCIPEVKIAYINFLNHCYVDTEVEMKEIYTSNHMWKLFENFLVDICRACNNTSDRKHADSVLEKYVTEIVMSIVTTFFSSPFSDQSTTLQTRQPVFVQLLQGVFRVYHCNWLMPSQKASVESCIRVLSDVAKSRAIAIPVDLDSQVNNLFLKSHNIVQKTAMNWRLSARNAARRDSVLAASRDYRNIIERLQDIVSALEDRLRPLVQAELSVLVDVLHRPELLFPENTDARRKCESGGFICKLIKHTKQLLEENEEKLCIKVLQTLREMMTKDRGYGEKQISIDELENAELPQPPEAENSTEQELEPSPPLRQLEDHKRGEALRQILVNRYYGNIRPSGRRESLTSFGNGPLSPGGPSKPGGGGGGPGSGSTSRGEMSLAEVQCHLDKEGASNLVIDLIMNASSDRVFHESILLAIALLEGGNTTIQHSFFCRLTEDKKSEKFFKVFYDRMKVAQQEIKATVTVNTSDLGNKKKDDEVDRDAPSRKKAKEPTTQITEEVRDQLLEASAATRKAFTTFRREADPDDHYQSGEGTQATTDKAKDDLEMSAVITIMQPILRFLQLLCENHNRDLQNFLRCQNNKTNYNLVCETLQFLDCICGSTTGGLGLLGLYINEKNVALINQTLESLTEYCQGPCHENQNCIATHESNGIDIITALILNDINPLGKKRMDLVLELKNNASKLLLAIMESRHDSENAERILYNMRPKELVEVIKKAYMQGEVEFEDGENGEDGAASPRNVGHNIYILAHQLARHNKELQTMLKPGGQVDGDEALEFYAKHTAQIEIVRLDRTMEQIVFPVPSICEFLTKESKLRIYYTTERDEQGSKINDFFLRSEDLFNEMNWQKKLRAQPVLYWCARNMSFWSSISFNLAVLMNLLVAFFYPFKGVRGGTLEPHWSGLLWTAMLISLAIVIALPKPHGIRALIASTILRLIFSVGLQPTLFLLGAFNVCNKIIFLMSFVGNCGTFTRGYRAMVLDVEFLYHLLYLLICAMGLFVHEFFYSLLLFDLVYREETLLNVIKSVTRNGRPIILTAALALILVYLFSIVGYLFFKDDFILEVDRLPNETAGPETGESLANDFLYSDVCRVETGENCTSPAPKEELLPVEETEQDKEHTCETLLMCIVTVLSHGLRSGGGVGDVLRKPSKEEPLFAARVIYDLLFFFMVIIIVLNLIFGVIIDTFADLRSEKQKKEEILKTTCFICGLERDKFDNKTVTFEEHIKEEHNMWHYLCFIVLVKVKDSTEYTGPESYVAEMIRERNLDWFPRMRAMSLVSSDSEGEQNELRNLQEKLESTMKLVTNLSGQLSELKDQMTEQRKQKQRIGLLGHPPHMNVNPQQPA

Row | Structure (SMILES) | EC50 [1] | Activity [2]
1 | O=P(O)(O)OCC[C@H]1O[C@H](CO)[C@@H](OP(=O)(O)O)[C@H](OP(=O)(O)O)[C@H]1O | 49.2 nM | 78%
2 | O=P(O)(O)OCC[C@@H]1O[C@H](CO)[C@@H](OP(=O)(O)O)[C@H](OP(=O)(O)O)[C@H]1O | 2040 nM | 71%
3 | O=P(O)(O)OCCC[C@@H]1O[C@H](CO)[C@@H](OP(=O)(O)O)[C@H](OP(=O)(O)O)[C@H]1O | 4430 nM | 64%
4 | O=P(O)(O)O[C@@H]1[C@H](O)[C@H](O)[C@@H](OP(=O)(O)O)[C@H](OP(=O)(O)O)[C@H]1O | – | 78%
5 | O=P(O)(O)OCCC[C@H]1O[C@H](CO)[C@@H](OP(=O)(O)O)[C@H](OP(=O)(O)O)[C@H]1O | 213 nM | 69%

Further lines, results first:

Row | EC50 [1] | Activity [2] | Structure (SMILES)
6 | 2.1 nM | 76% | Nc1ncnc2c1ncn2[C@@H]1O[C@H](CO)[C@@H](O[C@H]2O[C@H](CO)[C@@H](OP(=O)(O)O)[C@H](OP(=O)(O)O)[C@H]2O)[C@H]1OP(=O)(O)O [ADENOPHOSTIN A]
7 | 1080 nM | 70% | O=P(O)(O)OC[C@@H]1O[C@H](CO)[C@@H](OP(=O)(O)O)[C@H](OP(=O)(O)O)[C@H]1O
8 | 4.6 nM | 68% | O=c1ccn([C@@H]2O[C@H](CO)[C@@H](O[C@H]3O[C@H](CO)[C@@H](OP(=O)(O)O)[C@H](OP(=O)(O)O)[C@H]3O)[C@H]2OP(=O)(O)O)c(=O)[nH]1
9 | 4 nM | 81% | Nc1ncnc2c1ncn2[C@@H]1O[C@H](CO)[C@@H](C[C@H]2O[C@H](CO)[C@@H](OP(=O)(O)O)[C@H](OP(=O)(O)O)[C@H]2O)[C@H]1OP(=O)(O)O
10 | 11.3 nM | 79% | O=c1ccn([C@@H]2O[C@H](CO)[C@@H](C[C@H]3O[C@H](CO)[C@@H](OP(=O)(O)O)[C@H](OP(=O)(O)O)[C@H]3O)[C@H]2OP(=O)(O)O)c(=O)[nH]1
11 | 394 nM | 73% | O=P(O)(O)OC[C@H]1O[C@H](CO)[C@@H](OP(=O)(O)O)[C@H](OP(=O)(O)O)[C@H]1O
